Like-named read-outs stand apart in the source and are kept apart here. Values belong to the compound of their own block, whether it stands above or below them. *1 amine or outer side, *2 acyl side, *3 side chain or, on linkers, in order; H or OH if unused. Where a SMILES comes first, the peptide text is derived from it. [ ]: non-standard residue; d: D form. The star is where a group is joined. Adenosine(5'-uronoyl) = Nc1ncnc2c1ncn2[C@@H]1O[C@H](C(=O)*)[C@@H](O)[C@H]1O; X1 = Nc1ncnc2c1ncn2[C@@H]1O[C@H](C(=O)NC[C@H](N)C(=O)*)[C@@H](O)[C@H]1O; βAsp = O=C(O)[C@H](CC(=O)[*:2])N[*:1]; Dap = NC[C@H](N)C(=O)O
Legend:
[1] = target: T1, Protein Kinase A (Mus musculus, UniProt P05132); test: Inhibition constant for PKA (Table 3); assay type: biochemical
[2] = target: catalytic subunit of murine PKA (Mus musculus, UniProt P05132); test: Protein kinase A (PKA) activity inhibition, [γ-32P]ATP phosphocellulose paper assay; assay type: biochemical
[3] = target: protein kinase CK2 (Rattus norvegicus, UniProt P19139); test: Protein kinase CK2 activity inhibition, casein substrate, [γ-32P]ATP phosphocellulose paper assay; assay type: biochemical; conditions: 30°C, pH 7.5, 1 mg/mL casein, 30 µM [γ-32P] ATP; n. i. means no inhibition at 100 µM concentration of ligand
Chain of protein kinase CK2 (P19139 whole entry): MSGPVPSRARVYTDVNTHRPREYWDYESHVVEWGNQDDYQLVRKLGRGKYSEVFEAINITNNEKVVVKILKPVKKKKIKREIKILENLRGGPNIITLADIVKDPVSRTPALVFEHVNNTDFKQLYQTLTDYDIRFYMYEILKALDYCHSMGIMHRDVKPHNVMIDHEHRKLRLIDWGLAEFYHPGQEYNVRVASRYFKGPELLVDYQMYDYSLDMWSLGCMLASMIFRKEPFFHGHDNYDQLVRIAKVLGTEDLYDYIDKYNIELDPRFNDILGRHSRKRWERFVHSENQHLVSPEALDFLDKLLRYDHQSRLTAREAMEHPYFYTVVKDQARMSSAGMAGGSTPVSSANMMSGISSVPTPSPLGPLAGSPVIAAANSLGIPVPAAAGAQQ

[4] = target: Ca^2+-dependent protein kinase (CDPK-1); test: Ca2+-dependent protein kinase (CDPK-1) activity inhibition, [γ-32P]ATP phosphocellulose paper assay; assay type: biochemical, maize; conditions: 30°C, pH 7.5, 50 µM substrate peptide, 30 µM [γ-32P]ATP
[5] = target: protein kinase CK1; test: Protein kinase CK1 activity inhibition, casein substrate, [γ-32P]ATP phosphocellulose paper assay; assay type: biochemical, rat; conditions: 30°C, pH 7.5, 1 mg/mL casein, 30 µM [γ-32P] ATP
[6] = target: PKA (Mus musculus, UniProt P05132); conditions: literature values; read-out: Kd (affinity to PKA); cited from earlier work
[7] = target: Protein Kinase C; test: Inhibition constant for PKC (Table 3); assay type: biochemical
[8] = target: T1, Protein Kinase A; test: Inhibition constant for PKA (Table 3); assay type: biochemical; remark: listed apart in the source
[9] = target: Protein kinase C β isoform (PKC); test: Protein kinase C β (PKC) activity inhibition, [γ-32P]ATP phosphocellulose paper assay; assay type: biochemical, pig; conditions: 30°C, pH 7.5, 15 µM substrate peptide, 30 µM [γ-32P] ATP

SMILES: N=C(N)NCCC[C@H](NC(=O)[C@H](CCCNC(=N)N)NC(=O)[C@H](CCCNC(=N)N)NC(=O)[C@H](CCCNC(=N)N)NC(=O)[C@H](CCCNC(=N)N)NC(=O)[C@H](CCCNC(=N)N)NC(=O)CCCCCNC(=O)[C@H]1O[C@@H](n2cnc3c(N)ncnc32)[C@H](O)[C@@H]1O)C(=O)O [Inhibitor VII, AdoC(Ahx)Arg6]
Ki [1]: 40.1 nM
IC50 [2]: 0.12 ± 0.02 µM
IC50 [3]: > 30 µM

SMILES: C[C@H](NC(=O)CCNC(=O)CCNC(=O)[C@H]1O[C@@H](n2cnc3c(N)ncnc32)[C@H](O)[C@@H]1O)C(=O)N[C@@H](CCCNC(=N)N)C(=O)N[C@@H](CCCNC(=N)N)C(=O)N[C@@H](CCCNC(=N)N)C(=O)N[C@@H](CCCNC(=N)N)C(=O)N[C@@H](CCCNC(=N)N)C(=O)N[C@@H](CCCNC(=N)N)C(=O)O [Inhibitor I, AdoC(β-Ala )2AlaArg6]
IC50 [2]: 4.3 ± 0.3 µM
IC50 [3]: > 30 µM

SMILES: N=C(N)NCCC[C@H](NC(=O)[C@H](CCCNC(=N)N)NC(=O)[C@H](CCCNC(=N)N)NC(=O)[C@H](CCCNC(=N)N)NC(=O)[C@H](CCCNC(=N)N)NC(=O)[C@H](CCCNC(=N)N)NC(=O)CCCCCCCCCCNC(=O)[C@H]1O[C@@H](n2cnc3c(N)ncnc32)[C@H](O)[C@@H]1O)C(=O)O [Inhibitor IX, AdoC(Aun)Arg6]
IC50 (µM) CK2 [3]: n. i.^f)

Ki [1]: 27900 nM
SMILES: CC(=O)NCCCCCC(=O)N[C@@H](CCCN=C(N)N)C(=O)N[C@@H](CCCNC(=N)N)C(=O)N[C@@H](CCCNC(=N)N)C(=O)N[C@@H](CCCNC(=N)N)C(=O)N[C@@H](CCCNC(=N)N)C(=O)N[C@@H](CCCN=C(N)N)C(=O)O [Ac(amino-hexanoic acid)Arg6, Ac(Ahx)Arg6]

SMILES: C[C@H](NC(=O)[C@@H](N)CNC(=O)[C@@H](N)CNC(=O)[C@H]1O[C@@H](n2cnc3c(N)ncnc32)[C@H](O)[C@@H]1O)C(=O)N[C@@H](CCCNC(=N)N)C(=O)N[C@@H](CCCNC(=N)N)C(=O)N[C@@H](CCCNC(=N)N)C(=O)N[C@@H](CCCNC(=N)N)C(=O)N[C@@H](CCCNC(=N)N)C(=O)N[C@@H](CCCNC(=N)N)C(=O)O [Inhibitor II, AdoC(Dpr)2AlaArg6] (H-[Dap](X1)ARRRRRR-OH; C-terminus assumed)
IC50 [4]: 31 ± 3 µM
IC50 [5]: 5.6 ± 0.4 µM

SMILES: Nc1ncnc2nc[nH]c12 [adenine]
Kd [6]: 30 µM

SMILES: N=C(N)NCCC[C@H](NC(=O)[C@H](CCCNC(=N)N)NC(=O)[C@H](CCCNC(=N)N)NC(=O)[C@H](CCCNC(=N)N)NC(=O)[C@H](CCCNC(=N)N)NC(=O)[C@H](CCCNC(=N)N)NC(=O)CCNC(=O)[C@H]1O[C@@H](n2cnc3c(N)ncnc32)[C@H](O)[C@@H]1O)C(=O)O [Inhibitor V, AdoC(β-Ala)Arg6]
IC50 [2]: 1.8 ± 0.1 µM
IC50 (µM) CK2 [3]: n. i.^f)

SMILES: N=C(N)NCCC[C@H](NC(=O)[C@H](CCCNC(=N)N)NC(=O)[C@H](CCCNC(=N)N)NC(=O)[C@H](CCCNC(=N)N)NC(=O)[C@H](CCCNC(=N)N)NC(=O)[C@H](CCCNC(=N)N)NC(=O)CCCNC(=O)[C@H]1O[C@@H](n2cnc3c(N)ncnc32)[C@H](O)[C@@H]1O)C(=O)O [Inhibitor VI, AdoC(GABA)Arg6]
IC50 [2]: 1.3 ± 0.2 µM
IC50 [3]: > 30 µM

Ki [7]: 43200 nM
Ki [8]: 43100 nM
SMILES: Nc1ncnc2c1ncn2[C@@H]1O[C@H](CO)[C@@H](O)[C@H]1O [Adenosine]

Ki [1]: 29500 nM
SMILES: NC(N)=NCCC[C@H](NC(=O)[C@H](CCCN=C(N)N)NC(=O)[C@H](CCCN=C(N)N)NC(=O)[C@H](CCCN=C(N)N)NC(=O)[C@H](CCCN=C(N)N)NC(=O)[C@@H](N)CCCN=C(N)N)C(=O)O [Arg6]

SMILES: Nc1ncnc2c1ncn2[C@@H]1O[C@H](COP(=O)(O)OP(=O)(O)OP(=O)(O)O)[C@@H](O)[C@H]1O [ATP, adenosine triphosphate]
Kd [6]: 25 µM

SMILES: N=C(N)NCCC[C@H](NC(=O)[C@H](CCCNC(=N)N)NC(=O)[C@H](CCCNC(=N)N)NC(=O)[C@H](CCCNC(=N)N)NC(=O)[C@H](CCCNC(=N)N)NC(=O)[C@H](CCCNC(=N)N)NC(=O)CNC(=O)[C@H]1O[C@@H](n2cnc3c(N)ncnc32)[C@H](O)[C@@H]1O)C(=O)O [Inhibitor IV, AdoCGlyArg6]
IC50 [2]: 4 ± 0.2 µM
IC50 [3]: > 30 µM

SMILES: N=C(N)NCCC[C@H](NC(=O)[C@H](CCCNC(=N)N)NC(=O)[C@H](CCCNC(=N)N)NC(=O)[C@H](CCCNC(=N)N)NC(=O)[C@H](CCCNC(=N)N)NC(=O)[C@H](CCCNC(=N)N)NC(=O)CCCCCCCNC(=O)[C@H]1O[C@@H](n2cnc3c(N)ncnc32)[C@H](O)[C@@H]1O)C(=O)O [Inhibitor VIII, AdoC(Aoc)Arg6]
IC50 [2]: 0.24 ± 0.02 µM
IC50 [3]: > 30 µM

SMILES: C[C@H](NC(=O)C[C@H](NC(=O)C[C@H](NC(=O)[C@H]1O[C@@H](n2cnc3c(N)ncnc32)[C@H](O)[C@@H]1O)C(=O)O)C(=O)O)C(=O)N[C@@H](CCCNC(=N)N)C(=O)N[C@@H](CCCNC(=N)N)C(=O)N[C@@H](CCCNC(=N)N)C(=O)N[C@@H](CCCNC(=N)N)C(=O)N[C@@H](CCCNC(=N)N)C(=O)N[C@@H](CCCNC(=N)N)C(=O)O [Inhibitor III, AdoC(β-Asp)2AlaArg6] ({Adenosine(5'-uronoyl)-βAsp-βAsp}-ARRRRRR-OH; C-terminus assumed)
IC50 [4]: > 50 µM
IC50 [5]: > 30 µM
IC50 [9]: 27 ± 2 µM

Source: patent EP1179050B1, “METHOD FOR THE PURIFICATION OF PROTEIN KINASE BY AFFINITY CHROMATOGRAPHY” (University of Tartu, priority 1999, dated 2000)
